In brackets after ≈: the same amount, converted by molar mass. Like-named read-outs stand apart in the source and are kept apart here.
What was measured:
Format in all cases: cell-based
[1] = test system: Escherichia coli; experiment: MIC, agar dilution, Escherichia coli; settings: Escherichia coli, read-out: MIC
Method: (§1) Stock solution of each test antibiotic compound were prepared to have a concentration of 2 mg. of the test compound per milliliter in sterile water of 0.1M ammonium acetate solution. The amount of each compound used was adjusted for base compound activity as calculated from the purity data for the selected batch of compound.
(§2) The dilution procedure described by Washington and Sutter [Manual of Clinical Microbiology, 3rd, Edit. (Lennett, E. H. et al, Eds.), pp. 453-458 (1980), American Society for Microbiology, Washington, D.C.] was modified so that serial concentrations of 128 to 0.0625 microgram/ml. in sterile water was obtained. Then 1.5 ml. aliquots of these test antibiotic dilution mixtures are added to 13.5 molten (50° C.) Mueller-Hinton agar. Each resulting mixture is poured into 15×100 mm, sterile Petri plates and allowed to dry at room temperature overnight.
(§3) Test bacterial cultures are maintained at -70° C. on glass beads. [See R. J. Yancey, Jr. et al, Amer. Jr. of Vet. Research, 48, No. 7, pp. 1050-1053, (1987)]. At least one bacteria-laden bead per culture is dropped into one ml. of brain heart infusion (BHI) broth for overnight culture at 37° C. in 5% V/V carbon dioxide in air atmosphere.
(§4) On the data of assay, 2 to 8 drops of the bacterial broth cultures are transferred to fresh BHI broth (1 ml.) and the mixture is incubated for 4 to 6 hours at 37° C. in a 5% V/V carbon dioxide in air atmosphere. The resulting cultures are then diluted to match a 0.5 MacFarland standard and further diluted 1:20 V/V with sterile saline solution.
(§5) A 0.001 ml. drop of the resulting mixture, containing approximately 10^3 to 10^4 colony forming units (CFU) of each test bacteria organism, is dispensed onto the surface of the test antibiotic compound test plates with a Steer's type replicator. The resulting innoculated plates are incubated 16 to 18 hours at 37° C. with a carbon dioxide atmosphere.
as §1, with “Stock solutions” for “Stock solution”
as §2, with “mm.” for “mm,”
as §2, with “for Microbiology.” for “for Microbiology,”, “15×100 mm.” for “15×100 mm,”
as §3, with “culture” for “cultures”
(§6) On the day of assay, 2 to 8 drops of the bacterial broth cultures are transferred to fresh BHI broth (1 ml.) and the mixture is incubated for 4 to 6 hours at 37° C. in a 5% V/V carbon dioxide in air atmosphere. […]

[2] = test system: Streptococcus dysgalactiae; experiment: MIC, agar dilution, Streptococcus dysgalactiae; settings: Streptococcus dysgalactiae; strain UC251; read-out: MIC
Method: as §1, §2, §3, §4, §5
as §1, with “Stock solutions” for “Stock solution”
as §2, with “mm.” for “mm,”
as §2, with “for Microbiology.” for “for Microbiology,”, “15×100 mm.” for “15×100 mm,”
as §3, with “culture” for “cultures”
as §6

[3] = test system: Pseudomonas aeruginosa; experiment: MIC, agar dilution, Pseudomonas aeruginosa; settings: Pseudomonas aeruginosa, ATCC27853; strain ATCC 27853; read-out: MIC
Method: as §1, §2, §3, §4, §5
as §1, with “Stock solutions” for “Stock solution”
as §2, with “mm.” for “mm,”
as §2, with “for Microbiology.” for “for Microbiology,”, “15×100 mm.” for “15×100 mm,”
as §3, with “culture” for “cultures”
as §6

[4] = test system: Streptococcus suis; experiment: MIC, agar dilution, Streptococcus suis; settings: Streptococcus suis; strain 650-2; read-out: MIC
Method: as §1, §2, §3, §4, §5
as §1, with “Stock solutions” for “Stock solution”
as §2, with “mm.” for “mm,”
as §2, with “for Microbiology.” for “for Microbiology,”, “15×100 mm.” for “15×100 mm,”
as §3, with “culture” for “cultures”
as §6

[5] = test system: Enterococcus faecalis; experiment: MIC, agar dilution, Enterococcus faecalis; settings: Enterococcus faecalis; strain UC694; read-out: MIC
Method: as §1, with “Stock solutions” for “Stock solution”
as §2, §3, §4, §5, §1
as §2, with “mm.” for “mm,”
as §2, with “for Microbiology.” for “for Microbiology,”, “15×100 mm.” for “15×100 mm,”
as §3, with “culture” for “cultures”
as §6

[6] = test system: Salmonella typhimurium; experiment: MIC, agar dilution, Salmonella typhimurium; settings: Salmonella enterica, read-out: MIC
Method: as §1, §2, §3, §4, §5
as §1, with “Stock solutions” for “Stock solution”
as §2, with “mm.” for “mm,”
as §2, with “for Microbiology.” for “for Microbiology,”, “15×100 mm.” for “15×100 mm,”
as §3, with “culture” for “cultures”
as §6

[7] = test system: Pasteurella hemolytica; experiment: MIC (minimum inhibitory concentration), agar dilution, Pasteurella hemolytica; settings: Pasteurella, read-out: MIC
Method: as §1, §2, §3, §4, §5
as §1, with “Stock solutions” for “Stock solution”
as §2, with “mm.” for “mm,”
as §2, with “for Microbiology.” for “for Microbiology,”, “15×100 mm.” for “15×100 mm,”
as §3, with “culture” for “cultures”
as §6

[8] = test system: Staphylococcus aureus; experiment: MIC, agar dilution, Staphylococcus aureus; settings: Staphylococcus aureus, read-out: MIC
Method: as §1, §2, §3, §4, §5
as §1, with “Stock solutions” for “Stock solution”
as §2, with “mm.” for “mm,”
as §2, with “for Microbiology.” for “for Microbiology,”, “15×100 mm.” for “15×100 mm,”
as §3, with “culture” for “cultures”
as §6

[9] = test system: Pasteurella multocida; experiment: MIC, agar dilution, Pasteurella multocida; settings: Pasteurella multocida; strain UC9581; read-out: MIC
Method: as §1, §2, §3, §4, §5
as §1, with “Stock solutions” for “Stock solution”
as §2, with “mm.” for “mm,”
as §2, with “for Microbiology.” for “for Microbiology,”, “15×100 mm.” for “15×100 mm,”
as §3, with “culture” for “cultures”
as §6

[10] = test system: Enterococcus faecium; experiment: MIC, agar dilution, Enterococcus faecium; settings: Enterococcus faecium; strain UC241; read-out: MIC
Method: as §1, with “Stock solutions” for “Stock solution”
as §2, §3, §4, §5, §1
as §2, with “mm.” for “mm,”
as §2, with “for Microbiology.” for “for Microbiology,”, “15×100 mm.” for “15×100 mm,”
as §3, with “culture” for “cultures”
as §6

[11] = test system: Salmonella choleraesuis; experiment: MIC, agar dilution, Salmonella choleraesuis; settings: Salmonella enterica, read-out: MIC
Method: as §1, §2, §3, §4, §5
as §1, with “Stock solutions” for “Stock solution”
as §2, with “mm.” for “mm,”
as §2, with “for Microbiology.” for “for Microbiology,”, “15×100 mm.” for “15×100 mm,”
as §3, with “culture” for “cultures”
as §6

[12] = test system: Corynebacterium pyogenes; experiment: MIC, agar dilution, Corynebacterium pyogenes; settings: strain 213-2; read-out: MIC
Method: as §1, §2, §3, §4, §5
as §1, with “Stock solutions” for “Stock solution”
as §2, with “mm.” for “mm,”
as §2, with “for Microbiology.” for “for Microbiology,”, “15×100 mm.” for “15×100 mm,”
as §3, with “culture” for “cultures”
as §6

[13] = test system: Streptococcus uberis; experiment: MIC, agar dilution, Streptococcus uberis; settings: Streptococcus uberis, read-out: MIC
Method: as §1, §2, §3, §4, §5
as §1, with “Stock solutions” for “Stock solution”
as §2, with “mm.” for “mm,”
as §2, with “for Microbiology.” for “for Microbiology,”, “15×100 mm.” for “15×100 mm,”
as §3, with “culture” for “cultures”
as §6

[14] = test system: Bordetella bronchiseptica; experiment: MIC, agar dilution, Bordetella bronchiseptica; settings: Bordetella bronchiseptica; strain UC6313; read-out: MIC
Method: as §1, §2, §3, §4, §5
as §1, with “Stock solutions” for “Stock solution”
as §2, with “mm.” for “mm,”
as §2, with “for Microbiology.” for “for Microbiology,”, “15×100 mm.” for “15×100 mm,”
as §3, with “culture” for “cultures”
as §6

[15] = test system: Micrococcus luteus; experiment: MIC, agar dilution, Micrococcus luteus; settings: Micrococcus luteus; strain UC130; read-out: MIC
Method: as §1, §2, §3, §4, §5
as §1, with “Stock solutions” for “Stock solution”
as §2, with “mm.” for “mm,”
as §2, with “for Microbiology.” for “for Microbiology,”, “15×100 mm.” for “15×100 mm,”
as §3, with “culture” for “cultures”
as §6

[16] = test system: Streptococcus agalactiae; experiment: MIC, agar dilution, Streptococcus agalactiae; settings: Streptococcus agalactiae, read-out: MIC
Method: as §1, §2, §3, §4, §5
as §1, with “Stock solutions” for “Stock solution”
as §2, with “mm.” for “mm,”
as §2, with “for Microbiology.” for “for Microbiology,”, “15×100 mm.” for “15×100 mm,”
as §3, with “culture” for “cultures”
as §6

[17] = test system: Streptococcus bovis; experiment: MIC, agar dilution, Streptococcus bovis; settings: Streptococcus equinus; strain UC6281; read-out: MIC
Method: as §1, §2, §3, §4, §5
as §1, with “Stock solutions” for “Stock solution”
as §2, with “mm.” for “mm,”
as §2, with “for Microbiology.” for “for Microbiology,”, “15×100 mm.” for “15×100 mm,”
as §3, with “culture” for “cultures”
as §6

[18] = TYPHIMURIUM / UC6162, strain UC6162
[19] = TYPHIMURIUM / UC6164, strain UC6164
[20] = CHOLERAESUIS / UC6073, strain UC6073
[21] = CHOLERAESUIS / UC6077, strain UC6077

Row | SMILES | MIC ([1]; strain UC3784) [µg/mL] | MIC ([1]; strain UC6720) [µg/mL] | MIC ([1]; strain UC9670) [µg/mL] | MIC [2] [µg/mL] | MIC [3] [µg/mL] | MIC [4] [µg/mL] | MIC [5] [µg/mL] | MIC [6, 18] [µg/mL] | MIC [6, 19] [µg/mL] | MIC ([7]; strain UC6531) [µg/mL] | MIC ([7]; strain UC6532) [µg/mL] | MIC ([7]; strain UC9582) [µg/mL] | MIC ([8]; strain UC6093) [µg/mL] | MIC ([8]; strain UC6097) [µg/mL] | MIC ([8]; strain UC9203) [µg/mL] | MIC [9] [µg/mL] | MIC [10] [µg/mL] | MIC [11, 20] [µg/mL] | MIC [11, 21] [µg/mL] | MIC [12] [µg/mL] | other results
1 | CO/N=C(\C(=O)N[C@@H]1C(=O)N2C(C(=O)O)=C(CSSCc3ccccc3)CS[C@H]12)c1csc(N)n1 [Example 14] | 8 (≈ 14.5 µM) | 16 (≈ 29 µM) | 8 (≈ 14.5 µM) | ≤ 0.06 | > 32 | ≤ 0.06 | > 32 | 16 (≈ 29 µM) | 16 (≈ 29 µM) | 0.5 (≈ 0.906 µM) | 0.25 (≈ 0.453 µM) | 2 (≈ 3.63 µM) | 1 (≈ 1.81 µM) | 1 (≈ 1.81 µM) | 1 (≈ 1.81 µM) | 2 (≈ 3.63 µM) | > 32 | 16 (≈ 29 µM) | 32 (≈ 58 µM) | 0.25 (≈ 0.453 µM) | MIC ([13]; strain UC3946): ≤ 0.06 µg/mL; MIC ([13]; strain UC6159): 8 µg/mL (≈ 14.5 µM); MIC [14]: > 32 µg/mL; MIC [15]: ≤ 0.06 µg/mL; MIC ([16]; strain UC6892): ≤ 0.06 µg/mL; MIC [17]: ≤ 0.06 µg/mL
2 | CCCSSCC1=C(C(=O)O)N2C(=O)[C@@H](NC(=O)/C(=N\OC)c3csc(N)n3)[C@H]2SC1 [Example 11] | 16 (≈ 31.8 µM) | 32 (≈ 63.5 µM) | 16 (≈ 31.8 µM) | ≤ 0.06 | > 32 | ≤ 0.06 | > 32 | 16 (≈ 31.8 µM) | 32 (≈ 63.5 µM) | 0.5 (≈ 0.993 µM) | 0.5 (≈ 0.993 µM) | 0.5 (≈ 0.993 µM) | 8 (≈ 15.9 µM) | 8 (≈ 15.9 µM) | 8 (≈ 15.9 µM) | 32 (≈ 63.5 µM) | > 32 | 32 (≈ 63.5 µM) | > 32 | > 32 | MIC ([13]; strain UC3946): 0.25 µg/mL (≈ 0.496 µM); MIC ([13]; strain UC6159): 16 µg/mL (≈ 31.8 µM); MIC [14]: 32 µg/mL (≈ 63.5 µM); MIC [15]: 0.5 µg/mL (≈ 0.993 µM); MIC ([16]; strain UC3947): 2 µg/mL (≈ 3.97 µM); MIC ([16]; strain UC6892): > 32 µg/mL; MIC [17]: > 32 µg/mL

From patent publication US5134137A, “Cephalosporin antibiotics” (The Upjohn Company, priority 1990, dated 1992)
